Measurements published in patent publication US20260295053A1, “COMPOUNDS FOR DEGRADATION AND INHIBITION OF KRAS (G12D) PROTEIN” (Shenzhen Ionova Life Science Co., Ltd., priority 2023, published 2026).

Tests used:
KRAS (G12D) = molecular target: T1, KRAS (G12D) (Homo sapiens, UniProt P01116, G12D); experiment: KRAS (G12D) cellular degradation assay in AsPC-1 cells; assay type: cell-based; conditions: 24 hours, antibody fluorescence (Odyssey CLX), DC50 half-maximal degradation concentration
T1 construct: in-cell western with KRAS G12D antibody after 24 h
Method in brief: (§1)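 AsPC-1 cells: for degradation, grown to ~90% confluency, treated 24 h with 1:3 compound series ([…] to 1.5 nM), then fixed and immunostained for KRAS G12D and β-actin, read by infrared fluorescence, DC50 fitted. Proliferation: 3,500 cells/well, 6-day treatment, CellTiter Glo luminescence, IC50 fitted.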

AsPC-1 cells = experiment: AsPC-1 cell proliferation assay (CellTiter Glo); assay type: cell-based; conditions: 6 days
Method in brief: as §1

T1 sequence (P01116 1-188 isoform P01116-2 G12D): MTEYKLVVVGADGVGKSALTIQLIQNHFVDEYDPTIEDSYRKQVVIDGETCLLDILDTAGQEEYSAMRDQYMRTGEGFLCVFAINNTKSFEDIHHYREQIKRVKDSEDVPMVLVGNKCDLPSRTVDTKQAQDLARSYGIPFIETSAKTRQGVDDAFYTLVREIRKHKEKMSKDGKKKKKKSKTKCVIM

Row | DC50 (KRAS (G12D)) [nM] | IC50 (AsPC-1 cells; Homo sapiens, ASPC1, 144 h) [nM] | IC50 (AsPC-1 cells) [nM] | SMILES
1 | 10 to 100 |  | 10 to 100 | CCn1nccc1-c1ccc([C@H](CO)NC(=O)[C@@H]2C[C@@H](O)CN2C(=O)[C@H](C(C)C)n2cc(-c3ccc(COc4c(-c5c(C)c(F)cc6[nH]ncc56)c(C5CC5)cc5c(N6CCC=CCC6)nc(OC[C@H](C)OC)nc45)cc3)nn2)cc1 [Example 181, (2S,4R)-1-((2S)-2-(4-(4-(((6-cyclopropyl-7-(6-fluoro-5-methyl-1H-indazol-4-yl)-2-((S)-2-methoxypropoxy)-4-(2,3,6,7-tetrahydro-1H-azepin-1-yl)quinazolin-8-yl)oxy)methyl)phenyl)-1H-1,2,3-triazol-1-yl)-3-methylbutanoyl)-N—((R)-1-(4-(1-ethyl-1H-pyrazol-5-yl)phenyl)-2-hydroxyethyl)-4-hydroxypyrrolidine-2-carboxamide]
2 | < 10 | < 10 |  | CCn1nccc1-c1ccc([C@@H](NC(=O)[C@@H]2C[C@@H](O)CN2C(=O)[C@H](C(C)C)n2cc(-c3ccc(COc4c(-c5c(C)c(F)cc6[nH]ncc56)c(C5CC5)cc5c(N6CCCNCC6)nc(OC[C@H](C)OC)nc45)cc3)nn2)[C@H](C)O)cc1 [Example 184, (2S,4R)-1-((2S)-2-(4-(4-(((6-cyclopropyl-4-(1,4-diazepan-1-yl)-7-(6-fluoro-5-methyl-1H-indazol-4-yl)-2-((S)-2-methoxypropoxy)quinazolin-8-yl)oxy)methyl)phenyl)-1H-1,2,3-triazol-1-yl)-3-methylbutanoyl)-N-((1R,2S)-1-(4-(1-ethyl-1H-pyrazol-5-yl)phenyl)-2-hydroxypropyl)-4-hydroxypyrrolidine-2-carboxamide]
3 | < 10 |  | < 10 | CO[C@@H](C)COc1nc(N(C)[C@H]2CCNC2)c2cc(C3CC3)c(-c3c(C)c(F)cc4[nH]ncc34)c(OCc3ccc(-c4cn([C@H](C(=O)N5C[C@H](O)C[C@H]5C(=O)N[C@H](c5ccc(-c6scnc6C)cc5)[C@H](C)O)C(C)C)nn4)cc3)c2n1 [Example 167, (2S,4R)-1-((2S)-2-(4-(4-(((6-cyclopropyl-7-(6-fluoro-5-methyl-1H-indazol-4-yl)-2-((S)-2-methoxypropoxy)-4-(methyl((S)-pyrrolidin-3-yl)amino)quinazolin-8-yl)oxy)methyl)phenyl)-1H-1,2,3-triazol-1-yl)-3-methylbutanoyl)-4-hydroxy-N-((1R,2S)-2-hydroxy-1-(4-(4-methylthiazol-5-yl)phenyl)propyl)pyrrolidine-2-carboxamide]
4 | < 10 |  | < 10 | CO[C@@H](C)COc1nc(N(C)[C@H]2CCNC2)c2cc(C3CC3)c(-c3c(C)c(F)cc4[nH]ncc34)c(OCc3ccc(-c4cn([C@H](C(=O)N5C[C@H](O)C[C@H]5C(=O)N[C@H](c5ccc(-c6scnc6C)cc5)[C@H](C)O)C(C)C)nn4)cc3)c2n1 [Example 143, (2S,4R)-1-((2S)-2-(4-(4-(((6-cyclopropyl-7-(6-fluoro-5-methyl-1H-indazol-4-yl)-2-((S)-2-methoxypropoxy)-4-(methyl((S)-pyrrolidin-3-yl)amino)quinazolin-8-yl)oxy)methyl)phenyl)-1H-1,2,3-triazol-1-yl)-3-methylbutanoyl)-4-hydroxy-N-((1R,2S)-2-hydroxy-1-(4-(4-methylthiazol-5-yl)phenyl)propyl)pyrrolidine-2-carboxamide]
5 | < 10 | < 10 |  | CO[C@@H](C)COc1nc(N2CCNCC[C@H]2C)c2cc(C3CC3)c(-c3c(C)c(F)cc4[nH]ncc34)c(OCc3ccc(-c4cn([C@H](C(=O)N5C[C@H](O)C[C@H]5C(=O)N[C@H](c5ccc(-c6scnc6C)cc5)[C@H](C)O)C(C)C)nn4)cc3)c2n1 [Example 190, (2S,4R)-1-((2S)-2-(4-(4-(((6-cyclopropyl-7-(6-fluoro-5-methyl-1H-indazol-4-yl)-2-((S)-2-methoxypropoxy)-4-((R)-7-methyl-1,4-diazepan-1-yl)quinazolin-8-yl)oxy)methyl)phenyl)-1H-1,2,3-triazol-1-yl)-3-methylbutanoyl)-4-hydroxy-N-((1R,2S)-2-hydroxy-1-(4-(4-methylthiazol-5-yl)phenyl)propyl)pyrrolidine-2-carboxamide]

More lines, now with the values behind:

Row | SMILES | DC50 (KRAS (G12D)) [nM] | IC50 (AsPC-1 cells; Homo sapiens, ASPC1, 144 h) [nM] | IC50 (AsPC-1 cells) [nM]
6 | CO[C@H]1C[C@@H](Oc2nc(N3C[C@@H]4C[C@H]3CN4)c3cc(C4CC4)c(-c4c(C)c(F)cc5[nH]ncc45)c(OCc4ccc(-c5cn([C@H](C(=O)N6C[C@H](O)C[C@H]6C(=O)N[C@@H](CO)c6ccc(-c7scnc7C)cc6)C(C)C)nn5)cc4)c3n2)C1 [Example 102, (2S,4R)-1-((2S)-2-(4-(4-(((4-((1S,4S)-2,5-diazabicyclo[2.2.1]heptan-2-yl)-6-cyclopropyl-7-(6-fluoro-5-methyl-1H-indazol-4-yl)-2-((1s,3R)-3-methoxycyclobutoxy)quinazolin-8-yl)oxy)methyl)phenyl)-1H-1,2,3-triazol-1-yl)-3-methylbutanoyl)-4-hydroxy-N—((R)-2-hydroxy-1-(4-(4-methylthiazol-5-yl)phenyl)ethyl)pyrrolidine-2-carboxamide] | < 10 | < 10 | 
7 | CCn1nccc1-c1ccc([C@H](CO)NC(=O)[C@@H]2C[C@@H](O)CN2C(=O)[C@H](C(C)C)n2cc(-c3ccc(COc4c(-c5c(C)c(F)cc6[nH]ncc56)c(C5CC5)cc5c(N6C[C@@H]7C[C@H]6CN7)nc(OC[C@H](C)OC)nc45)cc3Cl)nn2)cc1 [Example 32, (2S,4R)-1-((2S)-2-(4-(4-(((4-((1S,4S)-2,5-diazabicyclo[2.2.1]heptan-2-yl)-6-cyclopropyl-7-(6-fluoro-5-methyl-1H-indazol-4-yl)-2-((S)-2-methoxypropoxy)quinazolin-8-yl)oxy)methyl)-2-chlorophenyl)-1H-1,2,3-triazol-1-yl)-3-methylbutanoyl)-N—((R)-1-(4-(1-ethyl-1H-pyrazol-5-yl)phenyl)-2-hydroxyethyl)-4-hydroxypyrrolidine-2-carboxamide] | 10 to 100 | 10 to 100 | 
8 | Cc1ncsc1-c1ccc([C@@H](NC(=O)[C@@H]2C[C@@H](O)CN2C(=O)[C@H](C(C)C)n2cc(-c3ccc(COc4c(-c5c(C)c(F)cc6[nH]ncc56)c(C5CC5)cc5c(N6C[C@@H]7C[C@H]6CN7)nc(OC6CC7COCC7C6)nc45)cc3)nn2)[C@H](C)O)cc1 (stereo partly drawn) [Example 132, (2S,4R)-1-((2S)-2-(4-(4-(((4-((1S,4S)-2,5-diazabicyclo[2.2.1]heptan-2-yl)-6-cyclopropyl-7-(6-fluoro-5-methyl-1H-indazol-4-yl)-2-((hexahydro-1H-cyclopenta[c]furan-5-yl)oxy)quinazolin-8-yl)oxy)methyl)phenyl)-1H-1,2,3-triazol-1-yl)-3-methylbutanoyl)-4-hydroxy-N-((1R,2S)-2-hydroxy-1-(4-(4-methylthiazol-5-yl)phenyl)propyl)pyrrolidine-2-carboxamide] | < 10 | < 10 | 
9 | Cc1ncsc1-c1ccc([C@@H](NC(=O)[C@@H]2C[C@@H](O)CN2C(=O)[C@H](C(C)C)n2cc(-c3ccc(COc4c(-c5c(C)c(F)cc6[nH]ncc56)c(C5CC5)cc5c(N6C[C@@H]7C[C@H]6CN7)nc(OC6CCOCC6)nc45)cc3)nn2)[C@H](C)O)cc1 [Example 72, (2S,4R)-1-((2S)-2-(4-(4-(((4-((1S,4S)-2,5-diazabicyclo[2.2.1]heptan-2-yl)-6-cyclopropyl-7-(6-fluoro-5-methyl-1H-indazol-4-yl)-2-((tetrahydro-2H-pyran-4-yl)oxy)quinazolin-8-yl)oxy)methyl)phenyl)-1H-1,2,3-triazol-1-yl)-3-methylbutanoyl)-4-hydroxy-N-((1R,2S)-2-hydroxy-1-(4-(4-methylthiazol-5-yl)phenyl)propyl)pyrrolidine-2-carboxamide] | < 10 | < 10 | 
10 | CO[C@@H](C)COc1nc(N2C[C@@H]3C[C@H]2CN3)c2cc(C3CC3)c(-c3c(C)c(F)cc4[nH]ncc34)c(OCc3ccc(-c4cn([C@H](C(=O)N5C[C@H](O)C[C@H]5C(=O)N[C@H](C#Cc5scnc5C)CO)C(C)C)nn4)cc3)c2n1 [Example 41, (2S,4R)-1-((2S)-2-(4-(4-(((4-((1S,4S)-2,5-diazabicyclo[2.2.1]heptan-2-yl)-6-cyclopropyl-7-(6-fluoro-5-methyl-1H-indazol-4-yl)-2-((S)-2-methoxypropoxy)quinazolin-8-yl)oxy)methyl)phenyl)-1H-1,2,3-triazol-1-yl)-3-methylbutanoyl)-4-hydroxy-N—((R)-1-hydroxy-4-(4-methylthiazol-5-yl)but-3-yn-2-yl)pyrrolidine-2-carboxamide] | < 10 | < 10 | 
11 | CCn1nccc1-c1ccc([C@H](CO)NC(=O)[C@@H]2C[C@@H](O)CN2C(=O)[C@H](C(C)C)n2cc(-c3ccc(COc4c(-c5c(C)c(F)cc6[nH]ncc56)c(C5CC5)cc5c(N6C[C@@H]7C[C@H]6CN7)nc(OC6CC7(CCOC7)C6)nc45)cc3)nn2)cc1 (stereo partly drawn) [Example 101, (2S,4R)-1-((2S)-2-(4-(4-(((2-((6-oxaspiro[3.4]octan-2-yl)oxy)-4-((1S,4S)-2,5-diazabicyclo[2.2.1]heptan-2-yl)-6-cyclopropyl-7-(6-fluoro-5-methyl-1H-indazol-4-yl)quinazolin-8-yl)oxy)methyl)phenyl)-1H-1,2,3-triazol-1-yl)-3-methylbutanoyl)-N—((R)-1-(4-(1-ethyl-1H-pyrazol-5-yl)phenyl)-2-hydroxyethyl)-4-hydroxypyrrolidine-2-carboxamide] | < 10 | < 10 | 
12 | CCn1nccc1-c1ccc([C@@H](NC(=O)[C@@H]2C[C@@H](O)CN2C(=O)[C@H](C(C)C)n2cc(-c3ccc(COc4c(-c5c(C)c(F)cc6[nH]ncc56)c(C5CC5)cc5c(N(C)[C@H]6CCNC6)nc(O[C@H]6C[C@H](OC)C6)nc45)cc3)nn2)[C@H](C)O)cc1 [Example 170, (2S,4R)-1-((2S)-2-(4-(4-(((6-cyclopropyl-7-(6-fluoro-5-methyl-1H-indazol-4-yl)-2-((1r,3S)-3-methoxycyclobutoxy)-4-(methyl((S)-pyrrolidin-3-yl)amino)quinazolin-8-yl)oxy)methyl)phenyl)-1H-1,2,3-triazol-1-yl)-3-methylbutanoyl)-N-((1R,2S)-1-(4-(1-ethyl-1H-pyrazol-5-yl)phenyl)-2-hydroxypropyl)-4-hydroxypyrrolidine-2-carboxamide] | < 10 | < 10 | 
